In brackets after ≈: the same amount, converted by molar mass. Where a name gives a salt, the structure may show the parent alone.
Tests used:
Assay in all cases: Antimicrobial activity (MIC), standard method of Nippon Kagakuryoho Gakkai
Assay type in all cases: cell-based
E. coli., NIHJ = details: for MIC: Escherichia coli
Description: (§1) Antimicrobial activity of the optically active compounds prepared in Examples was evaluated in accordance with the standard method specified by Nippon […], and results obtained are shown in Table 1 which precedes the claims herein in terms of minimum inhibitory concentration (MIC: […]).

Pr. vulgaris, 08601 = details: for MIC: Proteus vulgaris
Description: as §1

Ps. aeruginosa, 32104 = details: for Antimicrobial activity (MIC): Ps. aeruginosa; for MIC: Pseudomonas aeruginosa, 32104, Ps. aeruginosa
Description: as §1

Ps. aeruginosa, 32121 = details: for Antimicrobial activity (MIC): Ps. aeruginosa; for MIC: Pseudomonas aeruginosa, 32121, Ps. aeruginosa
Description: as §1

S. aureus, 209 P = details: for MIC: Staphylococcus aureus
Description: as §1

S. epidermidis, 56500 = details: for Antimicrobial activity (MIC): S. epidermidis; for MIC: Staphylococcus epidermidis, 56500, S. epidermidis
Description: as §1

Ser. marcescens, 10100 = details: for Antimicrobial activity (MIC): Ser. marcescens; for MIC: Serratia marcescens, 10100, Ser. marcescens
Description: as §1

[1] = tested on: Str. faecalis, ATCC 19433; details: for Antimicrobial activity (MIC): Str. faecalis; for MIC: Enterococcus faecalis, ATCC19433, Str. faecalis
Description: as §1

N[C@H]1CCN(c2cc3c(cc2F)c(=O)c(C(=O)O)cn3[C@@H]2C[C@@H]2F)C1 (relative stereo) [Compound 9a, 7-[3-(S)-Amino-1-pyrrolidinyl]-6-fluoro-1-(1,2-cis-2-fluorocyclopropyl)-4-oxo-1,4-dihydroquinoline-3-carboxylic acid]
Antimicrobial activity (MIC) (E. coli., NIHJ): 0.10 µg/mL
Antimicrobial activity (MIC) (Pr. vulgaris, 08601): <0.1 µg/mL
Antimicrobial activity (MIC) (Ps. aeruginosa, 32104): 0.39 µg/mL
Antimicrobial activity (MIC) (Ps. aeruginosa, 32121): 0.10 µg/mL
Antimicrobial activity (MIC) (S. aureus, 209 P): 0.10 µg/mL
Antimicrobial activity (MIC) (S. epidermidis, 56500): 0.39 µg/mL
Antimicrobial activity (MIC) (Ser. marcescens, 10100): 0.20 µg/mL
Antimicrobial activity (MIC) [1]: 1.57 µg/mL

N[C@H]1CCN(c2cc3c(cc2F)c(=O)c(C(=O)O)cn3[C@@H]2C[C@@H]2F)C1 (relative stereo) [Compound 9b, 7-[3-(S)-Amino-1-pyrrolidinyl]-6-fluoro-1-(1,2-cis-2-fluorocyclopropyl)-4-oxo-1,4-dihydroquinoline-3-carboxylic acid]
Antimicrobial activity (MIC) (E. coli., NIHJ): <0.1 µg/mL
Antimicrobial activity (MIC) (Pr. vulgaris, 08601): <0.1 µg/mL
Antimicrobial activity (MIC) (Ps. aeruginosa, 32104): 0.10 µg/mL
Antimicrobial activity (MIC) (Ps. aeruginosa, 32121): <0.1 µg/mL
Antimicrobial activity (MIC) (S. aureus, 209 P): <0.1 µg/mL
Antimicrobial activity (MIC) (S. epidermidis, 56500): 0.39 µg/mL
Antimicrobial activity (MIC) (Ser. marcescens, 10100): 0.10 µg/mL
Antimicrobial activity (MIC) [1]: 0.79 µg/mL

NC1CN(c2c(F)cc3c(=O)c(C(=O)O)cn([C@@H]4C[C@@H]4F)c3c2Cl)CC12CC2 (relative stereo) [Compound 26bb, (−)-7-(7-Amino-5-azaspiro[2.4]heptan-5-yl)-8-chloro-6-fluoro-1-(1,2-cis-2-fluoro-1-cylcopropyl)-1,4-dihydro-4-oxoquinoline-3-carboxylic acid]
Antimicrobial activity (MIC) (E. coli., NIHJ): <0.1 µg/mL
Antimicrobial activity (MIC) (Pr. vulgaris, 08601): <0.1 µg/mL
Antimicrobial activity (MIC) (Ps. aeruginosa, 32104): <0.1 µg/mL
Antimicrobial activity (MIC) (Ps. aeruginosa, 32121): <0.1 µg/mL
Antimicrobial activity (MIC) (S. aureus, 209 P): <0.1 µg/mL
Antimicrobial activity (MIC) (S. epidermidis, 56500): <0.1 µg/mL
Antimicrobial activity (MIC) (Ser. marcescens, 10100): <0.1 µg/mL
Antimicrobial activity (MIC) [1]: 0.20 µg/mL

C[C@H]1C[C@H](N)CN1c1nc2c(cc1F)c(=O)c(C(=O)O)cn2[C@@H]1C[C@@H]1F (relative stereo) [Compound 31b, 7-[4-(S)-Amino-2-(S)-methyl-1-pyrrolidinyl]-6-fluoro-1-(1,2-cis-2-fluoro-1-cyclopropyl)-4-oxo-1,4-dihydro-1,8-naphthyridine-3-carboxylic acid]
Antimicrobial activity (MIC) (E. coli., NIHJ): <0.1 µg/mL
Antimicrobial activity (MIC) (Pr. vulgaris, 08601): <0.1 µg/mL
Antimicrobial activity (MIC) (Ps. aeruginosa, 32104): 0.20 µg/mL
Antimicrobial activity (MIC) (Ps. aeruginosa, 32121): 0.10 µg/mL
Antimicrobial activity (MIC) (S. aureus, 209 P): <0.1 µg/mL
Antimicrobial activity (MIC) (S. epidermidis, 56500): 0.20 µg/mL
Antimicrobial activity (MIC) (Ser. marcescens, 10100): 0.10 µg/mL
Antimicrobial activity (MIC) [1]: 0.39 µg/mL

Nc1c(F)c(N2CC(N)C3(CC3)C2)c(F)c2c1c(=O)c(C(=O)O)cn2[C@@H]1C[C@@H]1F (relative stereo) [Compound 56b, 5-Amino-7-(7-amino-5-azaspiro[2,4]heptan-5-yl)-6,8-difluoro-1-(1,2-cis-2-fluoro-1-cyclopropyl) 4-oxo-1,4-dihydroquinoline-3-carboxylic acid]
Antimicrobial activity (MIC) (E. coli., NIHJ): <0.1 µg/mL
Antimicrobial activity (MIC) (Pr. vulgaris, 08601): <0.1 µg/mL
Antimicrobial activity (MIC) (Ps. aeruginosa, 32104): <0.1 µg/mL
Antimicrobial activity (MIC) (Ps. aeruginosa, 32121): <0.1 µg/mL
Antimicrobial activity (MIC) (S. aureus, 209 P): <0.1 µg/mL
Antimicrobial activity (MIC) (S. epidermidis, 56500): <0.1 µg/mL
Antimicrobial activity (MIC) (Ser. marcescens, 10100): <0.1 µg/mL
Antimicrobial activity (MIC) [1]: 0.10 µg/mL

NC1CN(c2c(F)cc3c(=O)c(C(=O)O)cn([C@@H]4C[C@@H]4F)c3c2Cl)CC12CCC2 (relative stereo) [Compound 58b, (−)-7-(8-amino-6-azaspiro[3.4]octane-6-yl)-8-chloro-6-fluoro-1-(1,2-cis-2-fluoro-1-cyclopropyl)-1,4-dihydro-4-oxoquinoline-3-carboxylic acid]
Antimicrobial activity (MIC) (E. coli., NIHJ): <0.1 µg/mL
Antimicrobial activity (MIC) (Pr. vulgaris, 08601): <0.1 µg/mL
Antimicrobial activity (MIC) (Ps. aeruginosa, 32104): 0.10 µg/mL
Antimicrobial activity (MIC) (Ps. aeruginosa, 32121): <0.1 µg/mL
Antimicrobial activity (MIC) (S. aureus, 209 P): <0.1 µg/mL
Antimicrobial activity (MIC) (S. epidermidis, 56500): <0.1 µg/mL
Antimicrobial activity (MIC) (Ser. marcescens, 10100): <0.1 µg/mL
Antimicrobial activity (MIC) [1]: <0.1 µg/mL

NC1CN(c2c(F)cc3c(=O)c(C(=O)O)cn(C4CC4F)c3c2Cl)CC12CC2 (single isomer, unassigned) [Compound 26aa]
Antimicrobial activity (MIC) (E. coli., NIHJ): <0.1 µg/mL
Antimicrobial activity (MIC) (Pr. vulgaris, 08601): <0.1 µg/mL
MIC (Ps. aeruginosa, 32104): 0.39 µg/mL (≈ 0.952 µM)
MIC (Ps. aeruginosa, 32121): 0.1 µg/mL (≈ 0.244 µM)
MIC (S. aureus, 209 P): < 0.1 µg/mL
MIC (S. epidermidis, 56500): 0.2 µg/mL (≈ 0.488 µM)
MIC (Ser. marcescens, 10100): 0.1 µg/mL (≈ 0.244 µM)
MIC [1]: 0.39 µg/mL (≈ 0.952 µM)

NC1CN(c2c(F)cc3c(=O)c(C(=O)O)cn(C4CC4F)c3c2Cl)CC12CC2 (single isomer, unassigned) [Compound 26ab]
Antimicrobial activity (MIC) (E. coli., NIHJ): <0.1 µg/mL
Antimicrobial activity (MIC) (Pr. vulgaris, 08601): <0.1 µg/mL
Antimicrobial activity (MIC) (Ps. aeruginosa, 32104): 0.20 µg/mL
Antimicrobial activity (MIC) (Ps. aeruginosa, 32121): <0.1 µg/mL
Antimicrobial activity (MIC) (S. aureus, 209 P): <0.1 µg/mL
Antimicrobial activity (MIC) (S. epidermidis, 56500): 0.10 µg/mL
Antimicrobial activity (MIC) (Ser. marcescens, 10100): <0.1 µg/mL
Antimicrobial activity (MIC) [1]: 0.20 µg/mL

Cc1c(N2CC[C@@H]([C@H](C)N)C2)c(F)cc2c(=O)c(C(=O)O)cn(C3CC3F)c12 (single isomer, unassigned; (-)) [Compound 54b, hydrochloride]
MIC (E. coli., NIHJ): < 0.1 µg/mL
MIC (Pr. vulgaris, 08601): < 0.1 µg/mL
MIC (Ps. aeruginosa, 32104): 0.2 µg/mL
MIC (Ps. aeruginosa, 32121): 0.1 µg/mL
MIC (S. aureus, 209 P): < 0.1 µg/mL
MIC (S. epidermidis, 56500): < 0.1 µg/mL
MIC (Ser. marcescens, 10100): 0.1 µg/mL
MIC [1]: 0.1 µg/mL

NC1CN(c2c(F)cc3c(=O)c(C(=O)O)cn(C4CC4F)c3c2Cl)CC12CC2 (centres unmarked) [Compound 26ba]
MIC (E. coli., NIHJ): < 0.1 µg/mL
MIC (Pr. vulgaris, 08601): < 0.1 µg/mL
Antimicrobial activity (MIC) (Ps. aeruginosa, 32104): 0.20 µg/mL
Antimicrobial activity (MIC) (Ps. aeruginosa, 32121): 0.10 µg/mL
Antimicrobial activity (MIC) (S. aureus, 209 P): <0.1 µg/mL
Antimicrobial activity (MIC) (S. epidermidis, 56500): 0.20 µg/mL
Antimicrobial activity (MIC) (Ser. marcescens, 10100): <0.1 µg/mL
Antimicrobial activity (MIC) [1]: 0.39 µg/mL

Reference: patent USRE41149E1, “Optically active pyridonecarboxylic acid derivatives” (Daiichi Sankyo Company, Limited, priority 1988, dated 2010)
